Test results from patent publication US20030207886A1, “Preparation containing quinoxaline derivatives” (priority 2000, published 2003).

Experiment: Maxima of UV-A and UV-B absorption of quinoxaline derivatives in 2-propanol
Format: physicochemical
Details: 1 mg of substance per 100 ml of solvent; for UV-A (400 320 nm) Max. abs.: absorbance at UV-A maximum; for UV-B (280 320 nm) Max. abs.: absorbance at UV-B maximum; for UV-A (400 320 nm) λ [nm]: wavelength of UV-A maximum; for UV-B (280 320 nm) λ [nm]: wavelength of UV-B maximum
Experimental: The measurement was carried out in 2-propanol at a concentration of 1 mg of substance per 100 ml of solvent.

Row | SMILES | UV-A (400 320 nm) Max. abs. | UV-B (280 320 nm) Max. abs. | UV-A (400 320 nm) λ [nm] | UV-B (280 320 nm) λ [nm]
1 | CCOC(=O)CCC(NC(=O)c1ccc(Nc2cnc3ccccc3n2)cc1)C(=O)OCC (stereo not drawn) | 0.3076 | 0.756 | 380.0 | 307.0
2 | Cc1nc2ccc(Cl)cc2nc1C | 0.400 |  | 322.0 | 
3 | CC(=O)c1ccc(Nc2cnc3ccccc3n2)cc1 | 0.622 | 1.062 | 374.9 | 314.7
4 | CN(C)c1cnc2ccccc2n1 | 0.413 |  | 378.0 | 
5 | CC(C)(C)OC(=O)c1ccc(Nc2cnc3ccccc3n2)cc1 | 0.506 | 1.172 | 374.3 | 306.3
6 | CCOC(=O)c1nc2ccccc2[nH]c1=O | 0.245 | 0.279 | 355.8 | 290.0
7 | CCOC(=O)c1nc2ccccc2nc1Cl | 0.243 |  | 322.9 | 
8 | Nc1nc2ccccc2nc1Cl | 0.427 |  | 353.4 | 
9 | c1ccc2nc3c(nc2c1)nc1ccccn13 | 0.411 |  | 348.3 | 
10 | Fc1ccc2nc3nc4ccccc4nc3n2c1 | 0.132 |  | 344.6 | 
11 | CCc1ccn2c(c1)nc1nc3ccccc3nc12 | 0.536 |  | 356.1 | 
12 | CC(=O)c1ccn2c(c1)nc1nc3ccccc3nc12 | 0.533 |  | 364.8 | 
13 | COC(=O)CCc1ccc2nc3nc4ccccc4nc3n2c1 | 0.3747 |  | 349.5 | 
14 | Brc1ccc2nc3nc4ccccc4nc3n2c1 | 0.4113 |  | 354 | 
15 | O=c1[nH]c2ccccc2nc1/C=C/c1ccccc1 | 0.7324 |  | 388.5 | 
16 | Cc1ccc(/C=C/c2nc3ccccc3[nH]c2=O)cc1 | 0.4660 |  | 336.0 | 
17 | O=c1[nH]c2ccccc2nc1/C=C/C=C/c1ccccc1 |  | 0.6004 |  | 281.5
18 | Cc1ccc(/C=C/c2nc3ccccc3nc2/C=C/c2ccc(C)cc2)cc1 |  | 0.3327 |  | 316.0
19 | CCC(=O)c1cnc2ccccc2n1 |  | 0.3236 |  | 307.0
20 | CC(=O)c1nc2ccccc2nc1C(C)=O |  | 0.3011 |  | 310.0
21 | CC(C)c1ccc(C(=O)c2nc3ccccc3nc2C(=O)c2ccc(C(C)C)cc2)cc1 |  | 0.45 |  | 280.0

Other lines, results leading:

Row | UV-A (400 320 nm) Max. abs. | UV-B (280 320 nm) Max. abs. | UV-A (400 320 nm) λ [nm] | UV-B (280 320 nm) λ [nm] | SMILES
22 | 0.378 | 1.141 | 374.1 | 297.2 | O=C(O)c1ccc(Nc2cnc3ccccc3n2)cc1
23 | 0.555 | 1.262 | 374.3 | 306.7 | CC(C)OC(=O)c1ccc(Nc2cnc3ccccc3n2)cc1
24 |  | 0.966 |  | 289.3 | Fc1cc(F)c(N(c2cnc3ccccc3n2)c2cnc3ccccc3n2)c(F)c1
25 | 0.235 | 0.635 | 393.4 | 285.6 | COc1cc(Nc2nc3ccccc3nc2-c2ccccc2)c(C(=O)O)cc1OC
26 | 0.342 | 0.849 | 381.9 | 305.3 | CC(C)OC(=O)c1ccc(Nc2nc3ccccc3nc2-c2ccccc2)cc1
27 | 0.469 |  | 386.3 |  | O=C(OC/C=C/c1ccccc1)c1ccccc1Nc1cnc2ccccc2n1
28 |  | 0.837 |  | 302.9 | O=C(O)c1ccc(NCc2cnc3ccccc3n2)cc1
29 |  | 0.614 |  | 295.6 | CCOC(=O)c1nc2ccccc2nc1Nc1cc(OC)c(OC)c(OC)c1
30 |  | 1.270 |  | 311.5 | CCOC(=O)c1nc2ccccc2nc1Nc1ccc(C(=O)O)cc1
31 | 0.319 | 0.887 | 372.8 | 286.9 | O=C(O)c1cc(Nc2cnc3ccccc3n2)cc(C(=O)O)c1
32 | 0.322 | 0.789 | 368.3 | 287.7 | COC(=O)c1cc(Nc2cnc3ccccc3n2)cc(C(=O)OC)c1
33 | 1.2265 |  | 328.5 |  | CCOC(=O)c1nc2ccccc2nc1Nc1ccc(C(C)=O)cc1
34 |  | 0.5713 |  | 295.0 | CCOC(=O)c1nc2ccccc2nc1Nc1cc(OC)c(OC)cc1C(=O)O
35 | 0.1187 | 0.4067 | 381.5 | 287.0 | CCOC(=O)c1nc2ccccc2nc1Nc1cc(F)c(F)cc1C(=O)O
36 |  | 0.2183 |  | 290.0 | O=C(O)c1ccc(CNc2nc3ccccc3nc2Cl)cc1
37 |  | 0.6431 |  | 286.0 | Clc1nc2ccccc2nc1C#Cc1ccccc1
38 |  | 0.4672 |  | 291.0 | CC(C)(C)OC(=O)c1ccc(Nc2nc3ccccc3nc2Cl)cc1
39 |  | 0.5569 |  | 291.0 | CCC(CC)COC(=O)c1ccc(Nc2cnc3ccccc3n2)c(O)c1
40 |  | 0.330 |  | 300.0 | O=C(c1ccccc1)c1cnc2ccccc2n1
